# Experimental data from article PMC8794255, “Small molecule inhibitor of Igf2bp1 represses Kras and a pro-oncogenic phenotype in cancer cells” (RNA Biology, 2021).
# “And” between values parts separate entries of the source, which are not always exact repeats. Equal values may be shown once.
# What was measured:
# Igf2bp2 = molecular target: T1, Igf2bp2 (Homo sapiens, UniProt Q9Y6M1); assay: MST, Igf2bp2; format: binding
# T1 construct: made in house
# Igf2bp3 = molecular target: T2, Igf2bp3 (Homo sapiens, UniProt O00425); assay: MST, Igf2bp3; settings: IGF2BP3 50nM, read-out: KD of binding to Igf2bp3
# T2 construct: made in house
# Igf2bp1 RRM12 di-domain = molecular target: T3, Igf2bp1 RRM12 di-domain (Homo sapiens, UniProt Q9NZI8); assay: MST, Igf2bp1 RRM12 di-domain; settings: read-out: KD of binding to RRM12
# T3 construct: Human Igf2bp1 di-domains RRM12 (M1-P188) and KH34 (P387-A574); 6xHis (N, cleaved yes); made in house; host or cells: E. coli BL21(DE3)
# Experimental: (§1) Recombinant full-length Igf2bp1 protein was labelled with RED-tris-NTA dye using a Monolith NT His-Tag Labelling Kit (NanoTemper) while RRM12, KH12 and KH34 di-domain peptides were labelled using the Protein Labelling Kit RED NHS 2nd generation (NanoTemper). Labelled proteins were spun at 15,000 g for 5 min to eliminate aggregates. All samples were 2X labelled protein mix of Igf2bp1 (200 nM) in PBST and were combined (1:1) with serial dilutions of compound or Kras6 RNA in binding buffer (10mMTris pH = 7.5, 100 mM NaCl, 0.1 mM EDTA, 0.06% IPEGAL, 0.02 μg/μL tRNA, 2 mM DTT, 0.1 μg/μL heparin) in final volume of 20 μL, room temperature for 15 min. Samples were then loaded into standard capillaries (NanoTemper) and read in the Monolith NT.115 scanner (NanoTemper) using the red filter with reading conditions of 95% LED power and 40% MST power, 5 sec fluorescence before, 30 sec MST on, 5 sec fluorescence after and 25 sec delay between samples. Results were analysed using the MO Control software (NanoTemper) for curve fitting to KD.
# (§2) The open reading frame of Igf2bps were cloned into the pET-21(d) plasmid (Novagen) between the Nco1 and Xho1 sites, as previously described. […]
# Igf2bp1 = molecular target: T4, Igf2bp1 (Homo sapiens, UniProt Q9NZI8); assay: Fluorescence polarization (FP) assay of Igf2bp1 binding to fluorescent Kras 6 RNA; settings: FP dose response; read-out: IC50, inhibition of Igf2bp1 binding to Kras 6 RNA
# T4 construct: Recombinant full-length Igf2bp1 protein was labelled with RED-tris-NTA dye; made in house
# Experimental: For the small-molecule screen, compounds were obtained from the collection maintained at the Grand Israel National Center for Personalized Medicine, consisting of molecules purchased from commercial vendors. Labelled RNA (10 nM) was incubated with recombinant Igf2bp1 protein (400 nM) in FAM-RNA buffer (10 mM Tris pH 8.0, 75 mM KCl, 0.5 mM EDTA, 1 mM DTT, 0.0188 U/μL RNAsin, 0.0005 μg/mL heparin, 0.0001 μg/μL tRNA, 0.01% Triton X-100, 3 mM MgCl2, 0.05% IGEPAL) at room temperature for 15 min. 7 μL of this reaction mix was aliquoted with GNF WDII (USA) into wells of 1536 well plates, with a final concentration of 20 μM compound or DMSO. The plates were spun down and read in a BMG Pherastar FS (Germany) plate reader, in FP mode with a 485/520/520 polarization filter, calibrated to 35 mP for free fluorescein with similar total intensity as experimental samples. […]
# To determine the quality of our screening assay, the Z’ factor for each plate was calculated with a Z’ factor greater than 0.5 indicating a robust assay suitable for high throughput screening. Compounds that altered the overall fluorescence intensity compared to controls were considered auto florescence and excluded from further analysis. […] Any small molecule that causes a change of more than three standard deviations from the mean is determined appropriate for further investigation.
# [1] = system: LKR-M cells overexpressing human Igf2bp1-GFP; assay: Wound healing assay, LKR-M cells expressing human Igf2bp1-GFP; format: cell-based, mouse; settings: 20 μM 7773 vs DMSO
# Experimental: (§3) Cells were seeded in 96 IncuCyte® ImageLock plates (20X10^3 cells per well) for 24 hours, to a near confluency of 95%, before the addition of increasing concentrations of compound. After a further 24 hours, wells were scratched using the IncuCyte® 96-well WoundMaker Tool, and the cells cultured for an additional 48 hours using the IncuCyte® S3 Live-Cell Analysis System (Essen BioScience). The plate was imaged at increments of 120 minutes for a period of 48 hours, and then analysed for relative wound healing.
# H1299 cells [2] = assay: Cell proliferation assay (Incucyte), H1299; format: cell-based, human
# Experimental: ES2, H1299 and HEK293 cells were seeded in a 96 well plate (5X10^3 cells per well) for 24 hours before adding the compound at increasing concentrations. After an additional 24 hours, the plate was incubated in an IncuCyte® S3 Live-Cell Analysis System (Essen BioScience). The wells were filmed for 72 hours, and then analysed for proliferation rate Using IncuCyte® S3 Live-Cell Analysis System (Essen BioScience)
# H1299 cells [3] = assay: Wound healing (cell migration) assay, H1299; format: cell-based, human
# Experimental: as §3
# Igf2bp1 KH12 di-domain = molecular target: T5, Igf2bp1 KH12 di-domain (Homo sapiens, UniProt Q9NZI8); assay: MST, Igf2bp1 KH12 di-domain; format: binding
# T5 construct: 6xHis/GST (N, cleaved yes); made in house; host or cells: E. coli BL21(DE3)
# Experimental: as §1, §2
# T1 sequence (Q9Y6M1 whole entry, species assumed): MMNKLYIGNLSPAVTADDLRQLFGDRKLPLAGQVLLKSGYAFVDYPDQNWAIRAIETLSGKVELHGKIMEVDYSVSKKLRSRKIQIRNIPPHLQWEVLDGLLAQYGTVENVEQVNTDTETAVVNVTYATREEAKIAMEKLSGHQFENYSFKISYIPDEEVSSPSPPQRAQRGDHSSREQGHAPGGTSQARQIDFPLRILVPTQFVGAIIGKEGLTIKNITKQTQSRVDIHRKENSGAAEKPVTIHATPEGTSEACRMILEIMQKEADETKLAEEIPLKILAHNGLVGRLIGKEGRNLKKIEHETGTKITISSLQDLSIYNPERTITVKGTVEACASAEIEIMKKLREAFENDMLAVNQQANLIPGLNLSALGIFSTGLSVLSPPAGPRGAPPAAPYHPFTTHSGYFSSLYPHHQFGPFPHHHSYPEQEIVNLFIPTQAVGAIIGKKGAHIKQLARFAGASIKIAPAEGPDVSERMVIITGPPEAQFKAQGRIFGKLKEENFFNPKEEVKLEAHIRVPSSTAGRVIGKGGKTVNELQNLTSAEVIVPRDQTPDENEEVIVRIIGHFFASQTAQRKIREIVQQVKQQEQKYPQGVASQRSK
# T4 sequence (Q9NZI8 whole entry): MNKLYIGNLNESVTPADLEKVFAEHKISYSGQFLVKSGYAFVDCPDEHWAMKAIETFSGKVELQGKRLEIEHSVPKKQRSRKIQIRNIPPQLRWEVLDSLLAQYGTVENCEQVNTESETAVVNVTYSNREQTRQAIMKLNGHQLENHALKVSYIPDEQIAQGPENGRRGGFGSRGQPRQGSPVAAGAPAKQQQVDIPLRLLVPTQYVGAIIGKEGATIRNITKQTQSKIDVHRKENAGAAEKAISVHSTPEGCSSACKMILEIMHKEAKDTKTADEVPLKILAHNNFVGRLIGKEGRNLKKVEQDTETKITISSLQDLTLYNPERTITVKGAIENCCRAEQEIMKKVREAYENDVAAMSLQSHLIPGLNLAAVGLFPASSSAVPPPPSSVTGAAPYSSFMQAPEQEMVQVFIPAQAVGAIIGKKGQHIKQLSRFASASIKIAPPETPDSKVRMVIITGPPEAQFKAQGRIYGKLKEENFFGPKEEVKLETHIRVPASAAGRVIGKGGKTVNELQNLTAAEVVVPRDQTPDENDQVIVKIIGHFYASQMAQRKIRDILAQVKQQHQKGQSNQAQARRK
# T5 sequence (Q9NZI8 194-369): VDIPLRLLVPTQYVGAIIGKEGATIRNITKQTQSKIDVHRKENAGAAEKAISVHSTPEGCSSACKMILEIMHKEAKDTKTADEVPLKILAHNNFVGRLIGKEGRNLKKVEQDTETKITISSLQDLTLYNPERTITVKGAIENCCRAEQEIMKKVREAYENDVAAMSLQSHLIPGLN
# T3 sequence (Q9NZI8 1-188): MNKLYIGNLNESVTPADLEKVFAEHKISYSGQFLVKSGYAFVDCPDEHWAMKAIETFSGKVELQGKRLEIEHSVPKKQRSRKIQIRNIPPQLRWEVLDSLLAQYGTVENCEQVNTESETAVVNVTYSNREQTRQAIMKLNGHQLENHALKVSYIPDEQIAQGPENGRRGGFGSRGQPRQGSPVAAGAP
# T2 sequence (O00425 whole entry, species assumed): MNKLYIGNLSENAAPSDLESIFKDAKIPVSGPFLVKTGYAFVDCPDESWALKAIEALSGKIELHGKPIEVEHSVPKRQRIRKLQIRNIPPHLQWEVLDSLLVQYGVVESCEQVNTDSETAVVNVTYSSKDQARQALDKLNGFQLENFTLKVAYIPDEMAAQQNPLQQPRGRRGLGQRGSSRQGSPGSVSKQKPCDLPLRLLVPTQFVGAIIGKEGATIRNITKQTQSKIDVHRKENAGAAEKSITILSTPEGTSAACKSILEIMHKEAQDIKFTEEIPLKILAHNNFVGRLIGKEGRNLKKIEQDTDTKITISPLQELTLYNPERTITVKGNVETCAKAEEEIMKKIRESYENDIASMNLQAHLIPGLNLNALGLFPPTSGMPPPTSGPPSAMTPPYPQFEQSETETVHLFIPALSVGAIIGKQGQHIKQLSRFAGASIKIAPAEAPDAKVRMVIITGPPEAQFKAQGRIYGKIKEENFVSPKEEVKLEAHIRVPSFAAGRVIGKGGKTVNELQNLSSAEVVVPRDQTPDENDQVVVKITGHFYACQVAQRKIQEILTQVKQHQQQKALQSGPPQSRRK
structure (smiles),measurement,setting,value
O=C(c1ccc(Cn2cnnn2)cc1)N1CCCC(Nc2ccc3c(c2)OCO3)C1 (centres unmarked) [compound 7773],Kd,"Igf2bp2; IGF2BP2 50nM, read-out: KD of binding to Igf2bp2",> 150 µM
same,Binding to Igf2bp2,Igf2bp2; even at concentrations that almost saturate binding to Igf2bp1,did not significantly bind
same,Kd,Igf2bp3,52 µM
same,Kd,Igf2bp1 RRM12 di-domain,1.5 µM
same,IC50,Igf2bp1,~30 µM and 30.4 µM
same,Effect on Igf2bp1-GFP-enhanced wound healing,[1],significantly inhibited
same,Effect on cell proliferation or cytotoxicity,"H1299 cells [2]; H1299, 20 μM 7773",virtually no effect
same,Cell proliferation,"H1299 cells [2]; H1299, up to 20 μM",remarkably unaffected
same,Wound healing,"H1299 cells [3]; H1299, 20 μM",strongly inhibited
same,Wound healing,"H1299 cells [3]; H1299, lowest concentration 5 μM",discernible inhibition
same,Binding to KH12,Igf2bp1 KH12 di-domain,no binding was observed
